From US9193721B2, “Fused derivatives as PI3Kδ inhibitors” (Incyte Holdings Corporation, priority 2010, dated 2015)

Tests used:
PI3Kδ (p110δ/p85α) = target: T1, PI3Kδ (p110δ/p85α) (Homo sapiens, UniProt O00329); test: PI3Kδ scintillation proximity assay (assay A); format: biochemical; conditions: 20 μM PIP2, 20 μM ATP, 4 nM PI3Kδ, 210 minutes, room temperature
T1 construct: purchased Millipore (Bedford, Mass.)
Procedure: PI3Kδ Scintillation Proximity Assay
[γ-33P] ATP (10 mCi/mL) was purchased from Perkin-Elmer (Waltham, Mass.). […] PI3Kδ (p110δ/p85α) was purchased from Millipore (Bedford, Mass.). ATP, MgCl2, DTT, EDTA, MOPS and CHAPS were purchased from Sigma-Aldrich (St. Louis, Mo.). Wheat Germ Agglutinin (WGA) YSi SPA Scintillation Beads was purchased from GE healthcare life sciences (Piscataway, N.J.).
The kinase reaction was conducted in polystyrene 384-well matrix white plate from Thermo Fisher Scientific in a final volume of 25 μL. Inhibitors were first diluted serially in DMSO and added to the plate wells before the addition of other reaction components. The final concentration of DMSO in the assay was 0.5%. The PI3K assays were carried out at room temperature in 20 mM MOPS, pH 6.7, 10 mM MgCl2, 5 mM DTT and CHAPS 0.03%. Reactions were initiated by the addition of ATP, the final reaction mixture consisted of 20 μM PIP2, 20 μM ATP, 0.2 μCi [γ-^33P] ATP, 4 nM PI3Kδ. Reactions were incubated for 210 minutes and terminated by the addition of 40 μL SPA beads suspended in quench buffer: 150 mM potassium phosphate pH 8.0, 20% glycerol. 25 mM EDTA, 400 μM ATP. The final concentration of SPA beads is 1.0 mg/mL. After the plate sealing, plates were shaken overnight at room temperature and centrifuged at 1800 rpm for 10 minutes, the radioactivity of the product was determined by scintillation counting on Topcount (Perkin-Elmer). IC50 determination was performed by fitting the curve of percent control activity versus the log of the inhibitor concentration using the GraphPad Prism 3.0 software.

[1] = tested on: Pfeiffer cell line (diffuse large B cell lymphoma); test: Pfeiffer cell proliferation assay; format: cell-based; conditions: Homo sapiens, [3H]-thymidine incorporation after 3-4 days plus 12 hours
Procedure: Pfeiffer Cell Proliferation Assay
Pfeiffer cell line (diffuse large B cell lymphoma) was purchased from ATCC (Manassas, Va.) and maintained in the culture medium recommended (RPMI and 10% FBS). To measure the anti-proliferation activity of the compounds, the Pfeiffer cells were plated with the culture medium (2×10^3 cells/well/per 200 μl) into 96-well ultra-low binding plates (Corning, Corning, N.Y.), in the presence or absence of a concentration range of test compounds. After 3-4 days, [^3H]-thymidine (1 μCi/well) (PerkinElmer, Boston, Mass.) in PBS was then added to the cell culture for an additional 12 hours before the incorporated radioactivity was separated by filtration with water through GF/B filters (Packard Bioscience, Meridenj, Conn.) and measured by liquid scintillation counting with a TopCount (Packard Bioscience).

T1 sequence (O00329 whole entry): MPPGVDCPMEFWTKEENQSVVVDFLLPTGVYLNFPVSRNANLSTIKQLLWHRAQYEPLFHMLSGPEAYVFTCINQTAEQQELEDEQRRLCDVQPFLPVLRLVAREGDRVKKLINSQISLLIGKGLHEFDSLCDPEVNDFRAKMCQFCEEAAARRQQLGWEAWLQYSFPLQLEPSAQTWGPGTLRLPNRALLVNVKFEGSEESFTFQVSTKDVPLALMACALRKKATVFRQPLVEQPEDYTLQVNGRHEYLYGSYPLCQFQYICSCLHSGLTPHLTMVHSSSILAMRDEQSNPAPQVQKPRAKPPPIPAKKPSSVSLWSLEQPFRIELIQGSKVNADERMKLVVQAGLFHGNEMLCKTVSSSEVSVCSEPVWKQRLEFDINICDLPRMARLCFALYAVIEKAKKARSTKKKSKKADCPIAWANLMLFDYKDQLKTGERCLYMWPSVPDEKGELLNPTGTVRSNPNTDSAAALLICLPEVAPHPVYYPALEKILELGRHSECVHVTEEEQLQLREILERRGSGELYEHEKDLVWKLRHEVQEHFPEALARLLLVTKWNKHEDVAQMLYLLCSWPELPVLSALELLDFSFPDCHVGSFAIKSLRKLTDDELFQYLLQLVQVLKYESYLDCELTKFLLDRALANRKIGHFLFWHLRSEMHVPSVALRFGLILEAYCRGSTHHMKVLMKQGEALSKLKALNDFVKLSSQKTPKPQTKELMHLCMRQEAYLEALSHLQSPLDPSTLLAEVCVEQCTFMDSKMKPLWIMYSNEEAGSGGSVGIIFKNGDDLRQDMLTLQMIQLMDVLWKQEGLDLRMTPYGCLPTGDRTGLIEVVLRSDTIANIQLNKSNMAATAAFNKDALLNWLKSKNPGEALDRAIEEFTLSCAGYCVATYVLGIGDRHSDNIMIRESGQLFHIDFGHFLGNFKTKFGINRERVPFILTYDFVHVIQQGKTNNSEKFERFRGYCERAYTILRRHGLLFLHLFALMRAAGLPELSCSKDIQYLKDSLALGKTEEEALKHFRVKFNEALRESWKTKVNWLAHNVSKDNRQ
T1 sequence (P27986 whole entry partner): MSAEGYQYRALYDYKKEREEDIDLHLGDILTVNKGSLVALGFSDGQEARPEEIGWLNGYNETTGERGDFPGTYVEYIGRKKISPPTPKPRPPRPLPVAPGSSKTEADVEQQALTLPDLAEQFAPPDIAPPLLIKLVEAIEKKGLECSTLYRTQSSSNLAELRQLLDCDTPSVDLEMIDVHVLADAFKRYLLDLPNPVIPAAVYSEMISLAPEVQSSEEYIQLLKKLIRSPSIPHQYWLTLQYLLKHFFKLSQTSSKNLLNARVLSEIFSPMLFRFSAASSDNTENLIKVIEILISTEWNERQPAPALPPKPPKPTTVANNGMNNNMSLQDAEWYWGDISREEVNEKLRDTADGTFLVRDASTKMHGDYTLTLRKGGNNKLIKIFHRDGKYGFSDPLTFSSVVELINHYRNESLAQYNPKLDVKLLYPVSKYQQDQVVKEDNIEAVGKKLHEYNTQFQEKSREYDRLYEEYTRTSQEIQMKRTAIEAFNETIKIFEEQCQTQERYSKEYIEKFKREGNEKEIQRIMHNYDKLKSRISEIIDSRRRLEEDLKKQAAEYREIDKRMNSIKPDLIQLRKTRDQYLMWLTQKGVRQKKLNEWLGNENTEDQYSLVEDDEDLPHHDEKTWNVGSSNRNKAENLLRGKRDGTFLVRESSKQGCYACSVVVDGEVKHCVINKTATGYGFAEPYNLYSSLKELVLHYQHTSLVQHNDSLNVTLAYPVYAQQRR

IC50 (PI3Kδ (p110δ/p85α)) [nM]	IC50 [1] [nM]	Structure (SMILES)
50 to 200	500 to 1000	CC(Nc1ncnc2[nH]cnc12)c1cc(Cl)c2cncn2c1N1CCN(CC#N)CC1 (stereo not shown) [Example 13, (4-{8-Chloro-6-[1-(9H-purin-6-ylamino)ethyl]imidazo[1,5-a]pyridin-5-yl}piperazin-1-yl)acetonitrile]
50 to 200	≤ 100	CC(Nc1ncnc2[nH]cnc12)c1cc(Cl)c2cncn2c1N1CCN(CCCC(F)(F)F)CC1 (stereo not shown) [Example 14, N-(1-{8-Chloro-5-[4-(4,4,4-trifluorobutyl)piperazin-1-yl]imidazo[1,5-a]pyridin-6-yl}ethyl)-9H-purin-6-amine]
50 to 200	≤ 100	CC(Nc1ncnc2[nH]cnc12)c1cc(Cl)c2cncn2c1N1CCN(C2CCC2)CC1 (stereo not shown) [Example 15, N-{1-[8-Chloro-5-(4-cyclobutylpiperazin-1-yl)imidazo[1,5-a]pyridin-6-yl]ethyl}-9H-purin-6-amine]
200 to 750	100 to 500	CC(Nc1ncnc2[nH]cnc12)c1cc(Cl)c2cncn2c1N1CCN(CC2CCCO2)CC1 (stereo not shown) [Example 16, N-(1-{8-Chloro-5-[4-(tetrahydrofuran-2-ylmethyl)piperazin-1-yl]imidazo[1,5-a]pyridin-6-yl}ethyl)-9H-purin-6-amine]
200 to 750	100 to 500	CC(Nc1ncnc2[nH]cnc12)c1cc(Cl)c2cncn2c1N1CCN(CC2CC2)CC1 (stereo not shown) [Example 17, N-(1-{8-Chloro-5-[4-(cyclopropylmethyl)piperazin-1-yl]imidazo[1,5-a]pyridin-6-yl}ethyl)-9H-purin-6-amine]
< 50	100 to 500	CCC(Nc1ncnc2[nH]cnc12)c1cc(Cl)c2cncn2c1-c1cccc(F)c1 (stereo not shown) [Example 18, N-{1-[8-Chloro-5-(3-fluorophenyl)imidazo[1,5-a]pyridin-6-yl]propyl}-9H-purin-6-amine]
< 50	≤ 100	Cc1ncc2c(Cl)cc(C(C)Nc3ncnc4[nH]cnc34)c(-c3cc(F)cc(F)c3)n12 (stereo not shown) [Example 19, N-{1-[8-Chloro-5-(3,5-difluorophenyl)-3-methylimidazo[1,5-a]pyridin-6-yl]ethyl}-9H-purin-6-amine]
< 50	100 to 500	CCC(Nc1ncnc2[nH]cnc12)c1cc(Cl)c2cnc(C)n2c1-c1cc(F)cc(F)c1 (stereo not shown) [Example 20, N-{1-[8-Chloro-5-(3,5-difluorophenyl)-3-methylimidazo[1,5-a]pyridin-6-yl]propyl}-9H-purin-6-amine]
< 50	≤ 100	CO[C@@H]1CCN(c2c(C(C)Nc3ncnc4[nH]cnc34)cc(Cl)c3cncn23)C1 (stereo partly drawn) [Example 21, N-(1-{8-Chloro-5-[(3R)-3-methoxypyrrolidin-1-yl]imidazo[1,5-a]pyridin-6-yl}ethyl)-9H-purin-6-amine]
< 50	≤ 100	CO[C@H]1CCN(c2c(C(C)Nc3ncnc4[nH]cnc34)cc(Cl)c3cncn23)C1 (stereo partly drawn) [Example 22, N-(1-{8-Chloro-5-[(3S)-3-methoxypyrrolidin-1-yl]imidazo[1,5-a]pyridin-6-yl}ethyl)-9H-purin-6-amine]
50 to 200	≤ 100	CC(Nc1ncnc2[nH]cnc12)c1cc(Cl)c2cncn2c1N1CC[C@@H](O)C1 (stereo partly drawn) [Example 23, (3R)-1-{8-Chloro-6-[1-(9H-purin-6-ylamino)ethyl]imidazo[1,5-a]pyridin-5-yl}pyrrolidin-3-ol]
< 50	≤ 100	CC(Nc1ncnc2[nH]cnc12)c1cc(Cl)c2cncn2c1N1CC[C@H](O)C1 (stereo partly drawn) [Example 24, (3S)-1-{8-Chloro-6-[1-(9H-purin-6-ylamino)ethyl]imidazo[1,5-a]pyridin-5-yl}pyrrolidin-3-ol]
< 50	500 to 1000	CCN(CC)c1c(C(C)Nc2ncnc3[nH]cnc23)cc(Cl)c2cnc(C)n12 (stereo not shown) [Example 25, N-{1-[8-Chloro-5-(diethylamino)-3-methylimidazo[1,5-a]pyridin-6-yl]ethyl}-9H-purin-6-amine]
< 50	≤ 100	CC(Nc1ncnc2[nH]cnc12)c1cc(Cl)c2ccnn2c1-c1cccc(F)c1 (stereo not shown) [Example 26, N-{1-[4-chloro-7-(3-fluorophenyl)pyrazolo[1,5-a]pyridin-6-yl]ethyl}-9H-purin-6-amine]
< 50	≤ 100	CC(Nc1ncnc2[nH]cnc12)c1cc(F)c2ccnn2c1-c1cccc(F)c1 (stereo not shown) [Example 27, N-{1-[4-fluoro-7-(3-fluorophenyl)pyrazolo[1,5-a]pyridin-6-yl]ethyl}-9H-purin-6-amine]
< 50	≤ 100	COc1cccc(-c2c(C(C)Nc3ncnc4[nH]cnc34)cc(Cl)c3ccnn23)c1 (stereo not shown) [Example 28, N-{1-[4-chloro-7-(3-methoxyphenyl)pyrazolo[1,5-a]pyridin-6-yl]ethyl}-9H-purin-6-amine]
< 50	500 to 1000	CC(Nc1ncnc2[nH]cnc12)c1cc(F)c2cncn2c1-c1cccc(F)c1 (stereo not shown) [Example 29, N-{1-[8-Fluoro-5-(3-fluorophenyl)imidazo[1,5-a]pyridin-6-yl]ethyl}-9H-purin-6-amine]
< 50	100 to 500	CC(=O)N1CCN(c2c(C(C)Nc3ncnc4[nH]cnc34)cc(Br)c3cncn23)CC1 (stereo not shown) [Example 30, N-{1-[5-(4-Acetylpiperazin-1-yl)-8-bromoimidazo[1,5-a]pyridin-6-yl]ethyl}-9H-purin-6-amine bis(trifluoroacetate)]
200 to 750	> 3000	CC(=O)N1CCN(c2c(C(C)Nc3ncnc4[nH]cnc34)cc(C#N)c3cncn23)CC1 (stereo not shown) [Example 31, 5-(4-Acetylpiperazin-1-yl)-6-[1-(9H-purin-6-ylamino)ethyl]imidazo[1,5-a]pyridine-8-carbonitrile bis(trifluoroacetate)]
< 50	> 3000	CC(=O)N1CCN(c2c(C(C)Nc3ncnc4[nH]cnc34)cc(C)c3cncn23)CC1 (stereo not shown) [Example 32, N-{1-[5-(4-Acetylpiperazin-1-yl)-8-methylimidazo[1,5-a]pyridin-6-yl]ethyl}-9H-purin-6-amine bis(trifluoroacetate)]
